# Read-outs that look alike come from different tables or passages of the source. Marks after values point to notes of the source that are not given here.
# Assays:
# [1] = system: K. pneumoniae AcrB^V448E; test: MIC of antibiotics with and without EPI (REMA), AcrB V448E mutant; assay type: cell-based, Klebsiella pneumoniae; conditions: for Minimum Inhibitory Concentration: K. pneumoniae AcrB^V448E; for MIC: Klebsiella pneumoniae, read-out: Minimum Inhibitory Concentration
# Description: (§1) MIC experiments were carried out according to the CLSI guidelines (CLSI [2023]). Overnight cultures were diluted to an OD600 = 0.001 in CAMHB followed by addition of efflux pump inhibitors (EPIs) at a final concentration of 100 µM. […] Plates were incubated at 37 °C for up to 20 h. Bacterial viability was evaluated using the resazurin microtitre assay (REMA) and measured by fluorescence using a Tecan Spaert multimode plate reader (Ex: 530 nm Em: 590 nm). MICs were defined as the concentration that prevented 90% of resazurin turnover compared to the non-treated bacteria.
# (§2) Mutations in acrB or ramR identified in the BDM88855.HCl (1’) resistant mutant (a.k.a., KPJC11) were introduced individually into K. pneumoniae ATCC 43816 chromosome by allelic exchange (Cianfanelli et al, [2020]). Briefly, 1-kb PCR products centred around each point mutation were generated by amplifying acrB with primers RH1251 ([…][…]) and RH1252 ([…][…]) or ramR with primers RH1249 ([…][…]) and RH1250 ([…][…]) from KPJC11 genomic DNA. PCR fragments were cloned into pFOK (Cianfanelli et al, [2020]) using NEB-building kit ([New England Biolabs]) to generate pEP1533 and pEP1534. Correct plasmids were confirmed by sequencing and introduced into K. pneumoniae ATCC43816 WT via conjugation with the MFDpir+ E. coli donor strain. Exconjugants were selected on kanamycin (50 mg/L) plates at 37 °C and plasmid chromosomal integration was checked by PCR. […] The next day, cultures were diluted and plated onto LB agar. Isolated colonies were then patched onto LB plates with or without kanamycin (50 mg/L) and Km^S candidates were evaluated for correct allelic exchange via acrB or ramR sequencing and then WGS to confirm no additional mutations were introduced.
# [2] = system: K. pneumoniae AcrB^V448E RamR^mut; test: MIC of antibiotics with and without EPI (REMA), double mutant; assay type: cell-based, Klebsiella pneumoniae; conditions: for Minimum Inhibitory Concentration: K. pneumoniae AcrB^V448E RamR^mut; for MIC: Klebsiella pneumoniae, read-out: Minimum Inhibitory Concentration
# Description: as §1
# [3] = system: K. pneumoniae RamR^mut (K124*stop); test: MIC of antibiotics with and without EPI (REMA), RamR mutant; assay type: cell-based, Klebsiella pneumoniae; conditions: for Minimum Inhibitory Concentration: K. pneumoniae RamR^mut; for MIC: Klebsiella pneumoniae, read-out: Minimum Inhibitory Concentration
# Description: as §1, §2
# [4] = system: K. pneumoniae ATCC 43816 (WT); test: MIC of antibiotics with and without EPI (REMA), WT strain; assay type: cell-based, Klebsiella pneumoniae; conditions: for MIC: Klebsiella pneumoniae
# Description: Overnight cultures were diluted to an OD600 = 0.001 in CAMHB followed by addition of efflux pump inhibitors (EPIs) at a final concentration of 100 µM. […] Plates were incubated at 37 °C for up to 20 h. […] MICs were defined as the concentration that prevented 90% of resazurin turnover compared to the non-treated bacteria.
# [5] = system: E. coli BW25113; test: PyrPip boosting of pyridomycin activity in E. coli (resazurin reduction); assay type: cell-based, Escherichia coli; conditions: for EC90: read-out: PyrPip antibiotic boosting activity EC90
# Text: With the aim of developing a PyrPip for in vivo efficacy studies in mice, it was important to optimise the metabolic stability of these efflux pump inhibitors to guarantee sufficient exposure in mice needed for antibiotic boosting. […] To identify metabolically stabilised PyrPips while maintaining AcrB inhibition, it was therefore decided to explore modifications to the quinoline core as well as the introduction of substituents at position 6 of the quinoline ring.
# [6] = Microsomal stability in mouse liver microsomes; assay type: in vitro ADME; conditions: for microsomal CLint at 1 μM / half-life at 1 μM: female; for microsomal CLint at 1 μM: CD-1, pH 7.4, read-out: Microsomal stability CLint (intrinsic clearance); for half-life at 1 μM: CD-1, pH 7.4, read-out: Microsomal stability t1/2
# Description: To determine compound microsomal stability, liver microsomes from female mice (CD-1, Corning) were used. All incubations were performed in duplicate in a shaking water bath at 37 °C. The incubation mixtures contained 1 μM compound with 1% MeOH used as a vehicle, mouse liver microsomes (0.3 mg of microsomal protein per mL), 5 mM MgCl2, 1 mM NADP, 5 mM glucose 6-phosphate, 0.4 U/mL glucose 6-phosphate dehydrogenase, and 50 mM potassium phosphate buffer (pH 7.4) in a final volume of 0.5 mL. Propranolol, known as a high hepatic clearance drug in rodents, was used as a quality-control compound. Controls (t0 and tfinal) were performed in the same conditions but without NADP. The reaction was initiated by the addition of the compound at 1 µM final. Aliquots were removed at 5, 10, 20, 30, and 40 min and the reaction was stopped by adding four volumes of ice-cold MeCN or MeOH containing an internal standard. The samples were centrifuged for 10 min at 12,000 rpm at 4 °C and the supernatants were transferred in matrix tubes for LC-MS/MS analysis. Each compound was quantified by converting the corresponding analyte/internal standard peak area ratios to percentage drug remaining, using the initial ratio values in control incubations as 100%.
# Intrinsic clearance (CLint) is expressed as μL/min/mg proteins.
# [7] = K. pneumoniae WT, + 100 µM PAβN
# [8] = E. coli BW25113 in the presence of 8 μg/mL pyridomycin, resazurin reduction, mean ± SEM
compound,measurement,setting,value
CCN1CCN(C(=O)N[C@@H](C(=O)N[C@@H]2C(=O)N3[C@@H]2SC(C)(C)[C@@H]3C(=O)O)c2ccccc2)C(=O)C1=O [Piperacillin],Minimum Inhibitory Concentration,[1]; + 100 µM 1',5.3^# mg/L
same,Minimum Inhibitory Concentration,[1]; + 100 µM 5,5.3^# mg/L
same,Minimum Inhibitory Concentration,[1]; + 100 µM PAβN,13 mg/L
same,MIC,[1],16 µg/mL
same,Minimum Inhibitory Concentration,[2]; + 100 µM 1',37 mg/L
same,Minimum Inhibitory Concentration,[2]; + 100 µM 5,21 mg/L
same,Minimum Inhibitory Concentration,[2]; + 100 µM PAβN,43 mg/L
same,MIC,[2],21 µg/mL
same,Minimum Inhibitory Concentration,[3]; + 100 µM 1',16 mg/L
same,Minimum Inhibitory Concentration,[3]; + 100 µM 5,6.7^# mg/L
same,Minimum Inhibitory Concentration,[3]; + 100 µM PAβN,21 mg/L
same,MIC,[3],27 µg/mL
same,Minimum Inhibitory Concentration,"[4]; K. pneumoniae WT, + 100 µM 1'",5.3 mg/L
same,Minimum Inhibitory Concentration,"[4]; K. pneumoniae WT, + 100 µM 5",4.0^# mg/L
same,Minimum Inhibitory Concentration,[4]; [7],8.0 mg/L
same,MIC,"[4]; ATCC43816, K. pneumoniae WT, No EPI, read-out: Minimum Inhibitory Concentration",8 µg/mL
CN(C)[C@@H]1C(O)=C(C(N)=O)C(=O)[C@@]2(O)C(O)=C3C(=O)c4c(O)cccc4[C@@](C)(O)[C@H]3C[C@@H]12 [Tetracycline],Minimum Inhibitory Concentration,[1]; + 100 µM 1',0.8^# mg/L
same,Minimum Inhibitory Concentration,[1]; + 100 µM 5,0.7^# mg/L
same,Minimum Inhibitory Concentration,[1]; + 100 µM PAβN,2.7 mg/L
same,MIC,[1],1.9 µg/mL
same,Minimum Inhibitory Concentration,[2]; + 100 µM 1',11 mg/L
same,Minimum Inhibitory Concentration,[2]; + 100 µM 5,8.5 mg/L
same,Minimum Inhibitory Concentration,[2]; + 100 µM PAβN,4.3^# mg/L
same,MIC,[2],11 µg/mL
same,Minimum Inhibitory Concentration,[3]; + 100 µM 1',1.1^# mg/L
same,Minimum Inhibitory Concentration,[3]; + 100 µM 5,0.7^# mg/L
same,Minimum Inhibitory Concentration,[3]; + 100 µM PAβN,4.3^# mg/L
same,MIC,[3],8.5 µg/mL
same,Minimum Inhibitory Concentration,"[4]; K. pneumoniae WT, + 100 µM 1'",0.4^# mg/L
same,Minimum Inhibitory Concentration,"[4]; K. pneumoniae WT, + 100 µM 5",0.4^# mg/L
same,Minimum Inhibitory Concentration,[4]; [7],1.3 mg/L
same,MIC,"[4]; ATCC43816, read-out: Minimum Inhibitory Concentration",0.8 µg/mL
Clc1cc2ccccc2nc1N1CCNCC1 [compound 1],"susceptibility of the strain to antibiotic boosting by the EPI, in words","[1]; K. pneumoniae-AcrB^V448E, Table 2",resistant
same,PyrPip antibiotic boosting activity EC90,[5]; [8],3.6 ± 0.5 µM
same,"EPI mediated antibiotic boosting, in words","[3]; K. pneumoniae-RamR^mut, Table 2",maintained
same,Microsomal stability CLint (intrinsic clearance),[6],59 μL/min/mg proteins
same,Microsomal stability t1/2,[6],24 min
Clc1nc2ccccc2cc1N1CCNCC1 [compound 2],EC90,[5]; [8],15.6 µM
same,decrease in potency (EC90) on changing the position of the nitrogen atom,[5]; relative to BDM88855.HCl (1’),4 fold
Clc1nc2ccccc2nc1N1CCNCC1 [compound 3],EC90,[5]; [8],3.9 ± 1.6 µM
same,microsomal CLint at 1 μM,[6],111 µL/min/mg
same,half-life at 1 μM,[6],15 min
Clc1cc2cc[nH]c2nc1N1CCNCC1 [compound 4],EC90,[5]; [8],> 250 µM
Clc1cc2cc(N3CCOCC3)ccc2nc1N1CCNCC1 [compound 6],EC90,[5]; [8],104 ± 28 µM
same,microsomal CLint at 1 μM,[6],103 µL/min/mg
same,half-life at 1 μM,[6],11 min
Clc1cc2cc(N3CCCCC3)ccc2nc1N1CCNCC1 [compound 7],EC90,[5]; [8],13 ± 4 µM
same,microsomal CLint at 1 μM,[6],223 µL/min/mg
same,half-life at 1 μM,[6],6 min
O=C1CNCCN1c1ccc2nc(N3CCNCC3)c(Cl)cc2c1 [compound 8],EC90,[5]; [8],31 µM
same,decrease in potency (EC90),[5]; piperazinone in place of the piperazine of compound 5,8 fold
NCCNc1ccc2nc(N3CCNCC3)c(Cl)cc2c1 [compound 9],EC90,[5]; [8],3.9 µM
same,microsomal CLint at 1 μM,[6],47 µL/min/mg
same,half-life at 1 μM,[6],40 min
NCC(=O)Nc1ccc2nc(N3CCNCC3)c(Cl)cc2c1 [compound 10],EC90,[5]; [8],3.9 µM
same,microsomal CLint at 1 μM,[6],2 µL/min/mg
same,half-life at 1 μM,[6],> 40 min
NCCCNc1ccc2nc(N3CCNCC3)c(Cl)cc2c1 [compound 11],EC90,[5]; [8],7.8 µM
same,decrease in potency (EC90),[5]; relative to compound 9,2 fold
N[C@@H]1CCN(c2ccc3nc(N4CCNCC4)c(Cl)cc3c2)C1 [compound 12],EC90,[5]; [8],1.3 ± 0.4 µM
same,improvement of potency (EC90),[5]; compared to analogue 5,3 fold
same,microsomal CLint at 1 μM,[6],303 µL/min/mg
same,half-life at 1 μM,[6],2.6 min
N[C@H]1CCN(c2ccc3nc(N4CCNCC4)c(Cl)cc3c2)C1 [compound 13],EC90,[5]; [8],9.1 ± 4.3 µM

# Reference: PMC10897476, “Pyridylpiperazine efflux pump inhibitor boosts in vivo antibiotic efficacy against K. pneumoniae” (EMBO Molecular Medicine, 2023)
